# According to patent publication US20190256929A1, “PHARMACODYNAMIC BIOMARKERS FOR PERSONALIZED CANCER CARE USING EPIGENETIC MODIFYING AGENTS” (ORYZON GENOMICS, S.A., priority 2016, published 2019):
# Tested on: patient derived xenograft (PDX) small cell lung cancer models, ex vivo cultures
# Assay: qRT-PCR of PD markers Notch1 and ASCL1 in ex vivo cultures of SCLC patient derived xenograft (PDX) models
# Assay type: cell-based, human
# Conditions: 1 nM, 120 hours
# Procedure: To confirm the results obtained for the panel for small cell lung cancer cell lines, changes in PD markers Notch1 and ASCL1 were evaluated in a panel of patient derived xenograft (PDX) small cell lung cancer models. The initiation and characterization of PDX models LX48, LX108, LX110, LX33 have been described previously (Hann, C. L., et al. 2008, Cancer Research. 68, 2321-2328; Poirier et al. (2013). J. Natl. Cancer Inst. 105, 1059-1065; Leong et al. PLoS One. 2014; 9:e106862). PDX models, FHSC04 and FHSC14 were generated from blood samples obtained from patients with extensive-stage SCLC, following the methodology described by the Dive lab (Hodgkinson et al. 2014 Nat Med August 20(8), 897-903). Ex vivo cultures were treated with 1 nM (trans)-N1-((1R,2S)-2-Phenylcyclopropyl)cyclohexane-1,4-diamine in 96 well plates (10,000 cells/well) for 120 hours. RNA was extracted in TRIzol (Invitrogen) and isolated according to the manufacturer's protocol. cDNA was generated using the iScript synthesis kit (Bio-Rad) according to the manufacturer's protocol. qPCR experiments were run on a Biorad qPCR instrument (CFX384). Data were normalized to GAPDH. FIG. 12 contains the results of the qRT-PCR using the following primers.
compound,measurement,value
"N[C@H]1CC[C@H](N[C@@H]2C[C@H]2c2ccccc2)CC1 [RG6016, (trans)-N1-((1R,2S)-2-phenylcyclopropyl)cyclohexane-1,4-diamine]",Regulation of ASCL1 (FIG. 12),down
same,Regulation of NOTCH1 (FIG. 12),up
